Results as given in ChEMBL document CHEMBL3886179, “Substituted 6, 7-dialkoxy-3-isoquinoline derivatives as inhibitors of phosphodiesterase 10 (PDE 10A)” (2015).

What follows are compounds tested against cAMP and cAMP-inhibited cGMP 3',5'-cyclic phosphodiesterase 10A (Homo sapiens, UniProt Q9Y233) (assay: Diaxonhit Phosphodiesterase Assay: The phosphodiesterase assay was developed using the LANCE cAMP kit (PerkinElmer). The assay buffer contained HBSS with 5 mM HEPES, 0.1% BSA, and 1.5 mM MgCl2, pH 7.4. PDE10A (BPS Bioscience) was used at 200 pg/well (with a specific activity of 3200 pmole/min/ug with assay conditions: 10 mM Tris-HCl, pH 7.4, 10 mM MgCl2, 1 mM MnCl2, 200 uM cAMP, 2.5 kU 5' nucleotidase, 37° C., 20 min) and PDE4D3 (BPS Bioscience) was used at 100 pg/well (with a specific activity of 32713 pmole/min/ug with assay conditions: 10 mM Tris-HCl, pH 7.4, 10 mM MgCl2, 1 mM MnCl2, 200 uM cAMP, 2.5 kU 5' nucleotidase, 37° C., 20 min). The Biotin-cAMP tracer, supplied in 10 mmol/L Tris-HCl buffered (pH 8.0) salt solution with 1 mmol/L ethylenediaminetetraacetic acid (EDTA), 0.1% bovine serum albumin (BSA), and 0.05% sodium azide, is used at a dilution of 1/375. The assay detection mixture contained the LANCE Eu-W8044 labeled streptavidin 1/2250 (supplied in 50 mmol/L Tris-HCl buffer).).
cAMP and cAMP-inhibited cGMP 3',5'-cyclic phosphodiesterase 10A, sequence (Q9Y233 whole entry): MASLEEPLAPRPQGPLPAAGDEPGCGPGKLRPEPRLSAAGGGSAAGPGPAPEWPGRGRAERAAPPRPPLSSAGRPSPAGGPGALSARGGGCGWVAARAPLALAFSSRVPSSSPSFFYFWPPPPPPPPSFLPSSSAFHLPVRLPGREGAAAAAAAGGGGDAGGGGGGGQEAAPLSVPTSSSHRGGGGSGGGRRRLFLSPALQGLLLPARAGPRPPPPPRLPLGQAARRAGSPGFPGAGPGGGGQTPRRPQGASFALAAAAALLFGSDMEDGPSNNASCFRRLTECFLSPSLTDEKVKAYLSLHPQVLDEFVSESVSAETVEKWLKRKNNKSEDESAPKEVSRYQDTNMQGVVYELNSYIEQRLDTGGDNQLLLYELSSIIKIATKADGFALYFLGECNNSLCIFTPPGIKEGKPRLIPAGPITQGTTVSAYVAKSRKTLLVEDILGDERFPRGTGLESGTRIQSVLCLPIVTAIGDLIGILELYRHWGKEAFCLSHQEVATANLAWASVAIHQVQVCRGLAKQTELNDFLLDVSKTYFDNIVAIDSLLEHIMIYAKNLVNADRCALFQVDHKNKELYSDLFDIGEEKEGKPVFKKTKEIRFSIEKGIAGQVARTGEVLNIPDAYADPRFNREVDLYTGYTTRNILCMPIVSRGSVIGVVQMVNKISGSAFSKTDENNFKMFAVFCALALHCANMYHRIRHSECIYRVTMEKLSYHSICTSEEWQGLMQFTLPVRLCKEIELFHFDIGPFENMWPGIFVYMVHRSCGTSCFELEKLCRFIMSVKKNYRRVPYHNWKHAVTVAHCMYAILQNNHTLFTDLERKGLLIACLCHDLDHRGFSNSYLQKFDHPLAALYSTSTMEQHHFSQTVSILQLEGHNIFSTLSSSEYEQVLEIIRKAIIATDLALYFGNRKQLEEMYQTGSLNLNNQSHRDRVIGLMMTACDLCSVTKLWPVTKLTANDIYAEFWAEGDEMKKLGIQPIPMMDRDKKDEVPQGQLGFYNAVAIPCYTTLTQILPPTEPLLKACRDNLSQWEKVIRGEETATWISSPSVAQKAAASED

Q: `COCc1ncc(Cc2ccc3cccc(NS(N)(=O)=O)c3n2)c2cc(OC)c(OC)cc12` was tested. Which IC50 did it give?
A: The IC50 was 0.18 nM.

Q: With `COc1cc2cncc(Cc3cnc4ccc(O)cc4c3)c2cc1OC` as the compound, how does the IC50 read?
A: Its IC50 is 2.9 nM.

Q: `COCc1ncc(Cc2ccc3cccc(N)c3n2)c2cc(OC)c(OC)cc12` was tested. Which IC50 did it give?
A: Its IC50 is 8.6 nM.

Q: How did the IC50 turn out when `COc1cc2cncc(Cc3ccc4[nH]c(=O)oc4c3)c2cc1OC` was run?
A: Its IC50 is 34 nM.

Q: How did the IC50 turn out when `COCc1ncc(Cc2cnc3ccc(O)c(C(F)(F)F)c3c2)c2cc(OC)c(OC)cc12` was run?
A: Its IC50 is 4.5 nM.

Q: How did the IC50 turn out when `COc1cc2cncc(Cc3ccc4nc(-c5ccc(CO)cc5)oc4c3)c2cc1OC` was run?
A: The IC50 was 20 nM.

Q: How did the IC50 turn out when `COc1cc2cncc(Cc3ccc4cccc(NS(N)(=O)=O)c4n3)c2cc1OC` was run?
A: The IC50 was 0.42 nM.

Q: `CCCc1ncc(Cc2cnc3ccc(O)cc3c2)c2cc(OC)c(OC)cc12` was tested. Which IC50 did it give?
A: Its IC50 is 9.4 nM.

Q: With `CCCc1ncc(Cc2ccc3c(C(F)(F)F)ccc(O)c3n2)c2cc(OC)c(OC)cc12` as the compound, how does the IC50 read?
A: The IC50 was 491 nM.

Q: Which IC50 does the source give for `CCCc1ncc(Cc2ccc3cccc(OCc4nnn[nH]4)c3n2)c2cc(OC)c(OC)cc12` here?
A: Its IC50 is 4.7 nM.

Q: Which IC50 does the source give for `COc1cc2cncc(Cc3cnc4ccc(OCC(N)=O)cc4c3)c2cc1OC` here?
A: The IC50 was 2.5 nM.

Q: With `CCCc1ncc(Cc2ccc3cccc(NC(=O)COC(C)=O)c3n2)c2cc(OC)c(OC)cc12` as the compound, how does the IC50 read?
A: The IC50 was 204 nM.

Q: For `CCCc1ncc(Cc2ccc3cccc(OCC(=O)NC)c3n2)c2cc(OC)c(OC)cc12`, which IC50 is on record?
A: Its IC50 is 51 nM.

Q: For `CCCc1ncc(Cc2ccc3cccc(NC(=O)CO)c3n2)c2cc(OC)c(OC)cc12`, which IC50 is on record?
A: The IC50 was 15 nM.

Q: Which IC50 does the source give for `COc1cc2cncc(Cc3coc4c(Cl)cc(Cl)cc4c3=O)c2cc1OC` here?
A: The IC50 was 27 nM.

Q: For `COc1cc2c(Cc3ccc4cccc(O)c4n3)cnc(C)c2cc1OC`, which IC50 is on record?
A: Its IC50 is 42 nM.

Q: How did the IC50 turn out when `CCn1c(=O)oc2ccc(Cc3cncc4cc(OC)c(OC)cc34)cc21` was run?
A: Its IC50 is 7.8 nM.

Q: Which IC50 does the source give for `CCCc1ncc(Cc2ccc3cccc(OCCNC(C)=O)c3n2)c2cc(OC)c(OC)cc12` here?
A: The IC50 was 58 nM.

Q: Which IC50 does the source give for `COc1cc2cncc(Cc3ccc4oc(-c5ccc(N)cc5)nc4c3)c2cc1OC` here?
A: Its IC50 is 49 nM.

Q: With `CCc1ncc(Cc2ccc3cccc(OCCO)c3n2)c2cc(OC)c(OC)cc12` as the compound, how does the IC50 read?
A: Its IC50 is 192 nM.

Q: How did the IC50 turn out when `CCc1ncc(Cc2ccc3cccc(OC(C)=O)c3n2)c2cc(OC)c(OC)cc12` was run?
A: The IC50 was 3110 nM.

Q: For `CCc1ncc(Cc2ccc3cccc(OCc4nnn[nH]4)c3n2)c2cc(OC)c(OC)cc12`, which IC50 is on record?
A: The IC50 was 31 nM.

Q: `CCCc1ncc(Cc2coc3ccc(C)cc3c2=O)c2cc(OC)c(OC)cc12` was tested. Which IC50 did it give?
A: Its IC50 is 31 nM.

Q: `COc1cc2c(Cc3ccc4cccc(O)c4n3)cnc(C3CC3)c2cc1OC` was tested. Which IC50 did it give?
A: The IC50 was 151 nM.

Q: Which IC50 does the source give for `CCCc1ncc(Cc2coc3ccc(F)cc3c2=O)c2cc(OC)c(OC)cc12` here?
A: Its IC50 is 54 nM.

Q: Which IC50 does the source give for `COCc1ncc(Cc2ccc3cccc(OCCO)c3n2)c2cc(OC)c(OC)cc12` here?
A: The IC50 was 28 nM.

Q: Which IC50 does the source give for `CCCc1ncc(Cc2ccc3c(C(F)(F)F)ccc(OCC(N)=O)c3n2)c2cc(OC)c(OC)cc12` here?
A: Its IC50 is 102 nM.

Q: Which IC50 does the source give for `CCCc1ncc(Cc2ccc3cccc(OCC(=O)O)c3n2)c2cc(OC)c(OC)cc12` here?
A: Its IC50 is 4.9 nM.

Q: How did the IC50 turn out when `COCc1ncc(Cc2ccc3cccc(O)c3n2)c2cc(OC)c(OC)cc12` was run?
A: Its IC50 is 19 nM.

Q: Which IC50 does the source give for `COc1cc2cncc(Cc3ccc4oc(-c5ccc(CO)cc5)nc4c3)c2cc1OC` here?
A: Its IC50 is 19 nM.

Q: How did the IC50 turn out when `COc1cc2c(Cc3ccc4cccc(OCC(N)=O)c4n3)cnc(C)c2cc1OC` was run?
A: Its IC50 is 64 nM.

Q: With `COc1cc2c(Cc3cnc4cc(C)ccc4c3)cnc(C)c2cc1OC` as the compound, how does the IC50 read?
A: The IC50 was 7.1 nM.

Q: For `COc1cc2c(Cc3ccc4cccc(NS(N)(=O)=O)c4n3)cnc(C)c2cc1OC`, which IC50 is on record?
A: The IC50 was 0.71 nM.

Q: Which IC50 does the source give for `CCc1ncc(Cc2ccc3cccc(OCCC(=O)O)c3n2)c2cc(OC)c(OC)cc12` here?
A: Its IC50 is 5 nM.

Q: `COc1cc2cncc(Cc3ccc4oc(-c5cccc(CO)c5)nc4c3)c2cc1OC` was tested. Which IC50 did it give?
A: Its IC50 is 28 nM.

Q: For `COc1cc2cncc(Cc3ccc4oc(-c5ccccc5CO)nc4c3)c2cc1OC`, which IC50 is on record?
A: The IC50 was 95 nM.

Q: `COc1cc2cncc(Cc3cnc4ccc(OCC(=O)O)cc4c3)c2cc1OC` was tested. Which IC50 did it give?
A: The IC50 was 7.9 nM.

Q: With `COc1cc2c(Cc3ccc4cccc(OCC(N)=O)c4n3)cnc(C3CC3)c2cc1OC` as the compound, how does the IC50 read?
A: Its IC50 is 67 nM.

Q: Which IC50 does the source give for `COc1cc2cncc(Cc3ccc4cccc(N)c4n3)c2cc1OC` here?
A: Its IC50 is 13 nM.

Q: Which IC50 does the source give for `CCOC(=O)COc1cccc2ccc(Cc3cnc(COC)c4cc(OC)c(OC)cc34)nc12` here?
A: Its IC50 is 71 nM.

Q: `CCCc1ncc(Cc2ccc3cccc(OCCC(=O)O)c3n2)c2cc(OC)c(OC)cc12` was tested. Which IC50 did it give?
A: The IC50 was 2.3 nM.

Q: Which IC50 does the source give for `CCCc1ncc(Cc2ccc3cccc(OC(C)=O)c3n2)c2cc(OC)c(OC)cc12` here?
A: Its IC50 is 109 nM.

Q: For `CCc1ncc(Cc2ccc3cccc(OCC(N)=O)c3n2)c2cc(OC)c(OC)cc12`, which IC50 is on record?
A: The IC50 was 20 nM.

Q: `COc1cc2cncc(Cc3ccc4oc(-c5ccc(C#N)cc5)nc4c3)c2cc1OC` was tested. Which IC50 did it give?
A: The IC50 was 148 nM.

Q: How did the IC50 turn out when `CCn1c(=O)oc2cc(Cc3cncc4cc(OC)c(OC)cc34)ccc21` was run?
A: Its IC50 is 32 nM.

Q: For `COc1cc2c(Cc3cnc4ccc(O)cc4c3)cnc(C)c2cc1OC`, which IC50 is on record?
A: The IC50 was 18 nM.

Q: With `COCc1ncc(Cc2cnc3ccc(O)cc3c2)c2cc(OC)c(OC)cc12` as the compound, how does the IC50 read?
A: Its IC50 is 5.6 nM.

Q: `CCCc1ncc(Cc2cnc3ccc(O)c(C(F)(F)F)c3c2)c2cc(OC)c(OC)cc12` was tested. Which IC50 did it give?
A: The IC50 was 13 nM.

Q: `COc1cc2cncc(Cc3ccc4oc(-c5ccccc5)nc4c3)c2cc1OC` was tested. Which IC50 did it give?
A: The IC50 was 189 nM.

Q: How did the IC50 turn out when `COCc1ncc(Cc2ccc3cccc(OCC(N)=O)c3n2)c2cc(OC)c(OC)cc12` was run?
A: Its IC50 is 21 nM.

Q: For `COc1cc2cnc(C)c(Cc3ccc4cccc(O)c4n3)c2cc1OC`, which IC50 is on record?
A: Its IC50 is 41 nM.

Q: How did the IC50 turn out when `CCCc1ncc(Cc2ccc3oc(=O)[nH]c3c2)c2cc(OC)c(OC)cc12` was run?
A: The IC50 was 64 nM.
